Assays:
Format in all cases: cell-based, human
PDE8A pre-mRNA = PDE8A pre-mRNA editing profile by nested RT-PCR and CE-SSCP in SH-SY5Y cells; conditions: increased concentrations of IFNα, 48 hours
Method: The SH-SY5Y Human neuroblastoma cell line was purchased from ECACC (ref 94030304, lot number 06H021). Cells were cultured in high glucose D-MEM medium (Sigma, ref D6546) supplemented with 10% dialysed FCS (PAA, ref A15-507, lot number A50708-0050), 2 mM Glutamine (Sigma, G7513) and a 1× mix of Antibiotic-Antimycotic Stabilized (Sigma, ref A5955) at 37° C. under a humidified atmosphere of 5% CO2. The day preceding hIFNα treatment, SH-SY5Y cells were plated in 8 different 6-well plates at a density of 7.10^5 cells/well. On the next day, culture medium was removed and cells were incubated for 48 hours with hIFNα at the correct concentration (PBL biomedical laboratories, ref 111001-1, lot number 3734). On the day of the experiment, the hIFNα stock solution (10^5 I.U/ml in sterile 1×D-PBS stocked at −80° C.) was thawed on ice and then extemporaneously diluted in D-MEM supplemented with FCS and Antibiotic-Antimycotic, at the final concentrations of […]. In each well, cells were treated with 2 ml of the working solution. Aliquots of the stock-solution were used only once. […]
Human total blood RNA was extracted with the PAXgene Blood RNA kit 50 (PreAnalytiX, ref 762174) according to manufacturer's instructions. […] Aliquots (5 μl) of the amplification products were used to check the quantity and the quality of amplicons on a 2% agarose analytic gel. […]

ADAR1a-p150 = test: Quantification of ADAR1a-p150 mRNA expression by real-time PCR in SH-SY5Y cells; conditions: IFNα application during 24 hours
Method: (§1) The SH-SY5Y Human neuroblastoma cell line was purchased from ECACC (ref 94030304, lot number 06H021). Cells were cultured in high glucose D-MEM medium (Sigma, ref D6546) supplemented with 10% dialysed FCS (PAA, ref A15-507, lot number A50708-0050), 2 mM Glutamine (Sigma, G7513) and a 1× mix of Antibiotic-Antimycotic Stabilized (Sigma, ref A5955) at 37° C. under a humidified atmosphere of 5% CO2. The day preceding hIFNα treatment, SH-SY5Y cells were plated in 8 different 6-well plates at a density of 7.10^5 cells/well. […]
In order to quantify levels of ADAR1a mRNA expression in SH-SY5Y cells first-strand cDNA was synthesized by reverse transcription (as described above) and subjected to TaqMan quantitative Real-Time PCR analysis (Applied Biosystems,). The probe and primers used for the quantitative PCRs were from Applied Biosystems (Gene Expression Assays, Assay-On-Demand): • -ADAR1a: ref Hs 01020780_ml
Human GAPDH (product no. 4326317E; Applied Biosystems) was included in each multiplex PCR as an internal control. […] Quantitation of target gene expression in all samples was normalized to GAPDH expression by the equation Ct (target)−Ct (GAPDH)=ΔCt, where Ct is the threshold cycle number. The mean ΔCt value of samples from untreated cells was determined and used as a reference point for the samples corresponding to IFNα treated cells. […]

[1] = test system: PDE8A4 isoform of the protein; test: Western blot analysis of PDE8A protein concentrations in SH-SY5Y cells after IFNα; conditions: IFNα application during 24 hours
Method: as §1
After culture medium elimination, SH-SY5Y cells were washed two times with a phosphate buffer solution (PBS, Gibco Invitrogen Corporation), scraped and solubilized for 2 hr at 4° C. in solubilization buffer containing 150 mM NaCl, 5 mM EDTA, 1% Triton X-100, 0.1% sodium deoxycholate, 10 mM Tris-HCl [pH 8.0] and supplemented with protease inhibitors (1 mM phenylmethylsulfonyl fluoride, and one tablet of Complete™ mini protease inhibitors cocktail [Roche]). […] Proteins present in the supernatant (clear lysate) were quantified with a Qubit Fluorometer (Invitrogen, Q32857) and the Quant-IT Protein assay (Invitrogen, ref Q33211). […]

interferon alpha [IFNα]
proportions of isoform B in the editing profile of PDE8A RNA (PDE8A pre-mRNA): relative increase | RQ versus GAPDH of the ADAR1a-p150 (ADAR1a-p150): induced | maximal effect on PDE8A4 isoform, % of the steady state concentration found in controls ([1]; from best fit): −47% | estimated EC 50% of the effect on PDE8A4 isoform concentration versus concentrations of IFNα ([1]; western blot, ±SD, R^2 of the fit=0.7): 3.3±4.4 IU/ml

Reference: patent US10323283B2, “Editing profiling of PDE8A pre-mRNA: use as specific biomarker of ADARs activities in human tissues to diagnose and to predict and assess therapeutic efficacy and/or efficiency or potential drug side effects” (ALCEDIAG, priority 2010, dated 2019)
